pIC50: −log10 of the molar value. The source made the active and inactive calls. No cut-off for these calls is given here.
Key:
DNA [1] = experiment: Induction of copper-mediated Escherichia coli supercoiled pBR322 DNA cleavage assessed as increase in open circular form of DNA with small amount of linear form at 1 mM incubated for 24 hrs in presence of Cu2+ ion by agarose gel electrophoresis analysis; format: nucleic-acid assay
[2] = Antioxidant activity assessed as trolox equivalent of Cu2+ reducing activity incubated for 30 mins by CUPRAC assay relative to trolox; format: functional
[3] = Antioxidant activity assessed as DPPH radical scavenging activity incubated for 30 mins under dark condition by microplate reader based assay; format: functional; settings: for pIC50: read-out: IC50
HaCaT = experiment: Anti-ferroptotic activity against erastin-induced ferroptosis in human HaCaT cells assessed as cell viability at 5 uM pretreated with compound for 4 hrs followed by erastin challenge for 24 hrs by MTT assay (reference value: 45%); format: functional; settings: time 28 hrs, read-out: Activity
DNA [4] = experiment: Induction of copper-mediated Escherichia coli supercoiled pBR322 DNA cleavage at 100 uM incubated for 24 hrs in presence of Cu2+ ion by agarose gel electrophoresis analysis; format: nucleic-acid assay
DNA [5] = experiment: Induction of copper-mediated Escherichia coli supercoiled pBR322 DNA cleavage assessed as increase in cleaved DNA with significant amount of supercoiled form at 1 mM incubated for 24 hrs in presence of Cu2+ ion by agarose gel electrophoresis analysis; format: nucleic-acid assay
DNA [6] = experiment: Induction of copper-mediated Escherichia coli supercoiled pBR322 DNA cleavage assessed as cleavage of DNA into smaller fragments at 1 mM incubated for 24 hrs in presence of Cu2+ ion by agarose gel electrophoresis analysis; format: nucleic-acid assay
DNA [7] = experiment: Induction of copper-mediated Escherichia coli supercoiled pBR322 DNA cleavage assessed as increase in open circular form of DNA at 1 mM incubated for 24 hrs in presence of Cu2+ ion by agarose gel electrophoresis analysis; format: nucleic-acid assay
DNA [8] = experiment: Induction of copper-mediated Escherichia coli supercoiled pBR322 DNA cleavage assessed as increase in open circular form and linear form of DNA at 100 uM incubated for 24 hrs in presence of Cu2+ ion by agarose gel electrophoresis analysis; format: nucleic-acid assay
DNA [9] = experiment: Induction of Escherichia coli supercoiled pBR322 DNA cleavage incubated for 90 mins in presence of Cu2+ ion by agarose gel electrophoresis analysis; format: nucleic-acid assay; settings: dose 3.9-500 µM, DDE = dose-dependent effect

Compound	Activity (DNA [1])	pIC50 [3]	Activity (DNA [4])	Activity (DNA [5])	Activity (DNA [6])	Activity (DNA [7])	Activity (DNA [8])	IC50 [3]	Activity (DNA [9])	Ratio [2]	viability at 5 µM (HaCaT) [%]
Cc1ccc(O)c(/C=N/NC(=O)c2cc3ccc4c(c3o2)C=CC(C)(C)O4)c1	Active	< 4.00								0.95	62
CC1(C)C=Cc2c(ccc3cc(C(=O)N/N=C/c4ccc(O)cc4)oc23)O1		< 4.00	Active			Active				0.79	
CC1(C)C=Cc2c(ccc3cc(C(=O)N/N=C/c4ccccc4O)oc23)O1						Active				0.48	62
COc1ccc(O)c(/C=N/NC(=O)c2cc3ccc4c(c3o2)C=CC(C)(C)O4)c1	Active	< 4.00								1.22	44
COc1cccc(/C=N/NC(=O)c2cc3ccc4c(c3o2)C=CC(C)(C)O4)c1O	Active	< 4.00								0.85	44
COc1cc(/C=N/NC(=O)c2cc3ccc4c(c3o2)C=CC(C)(C)O4)cc([N+](=O)[O-])c1O	Active	< 4.00	Active							1.52	59
O=c1c(O)c(-c2ccc(O)c(O)c2)oc2cc(O)ccc12 [FISETIN]											70
COc1ccc(/C=N/NC(=O)c2cc3ccc4c(c3o2)C=CC(C)(C)O4)cc1O	Active	< 4.00	Active							1.36	44
CC1(C)C=Cc2c(ccc3cc(C(=O)N/N=C/c4cc(O)cc(O)c4)oc23)O1		< 4.00	Active			Active				1.27	
CC1(C)C=Cc2c(ccc3cc(C(=O)N/N=C/c4cccc(O)c4)oc23)O1			Active			Active					
COc1cc(/C=N/NC(=O)c2cc3ccc4c(c3o2)C=CC(C)(C)O4)cc(OC)c1O	Active		Active					Nd(Insoluble)		2.22	57
COc1cc(/C=N/NC(=O)c2cc3ccc4c(c3o2)C=CC(C)(C)O4)cc(Br)c1O	Active	< 4.00	Active							1.09	59

Continued, in another order:

Activity (DNA [1])	pIC50 [3]	Activity (DNA [4])	Activity (DNA [5])	Activity (DNA [6])	Activity (DNA [7])	Activity (DNA [8])	IC50 [3]	Activity (DNA [9])	Compound	Ratio [2]	viability at 5 µM (HaCaT) [%]
Active	< 4.00								COc1cc(O)c(/C=N/NC(=O)c2cc3ccc4c(c3o2)C=CC(C)(C)O4)c(OC)c1	0.97	41
Active	4.06	Active							COc1cc(/C=N/NC(=O)c2cc3ccc4c(c3o2)C=CC(C)(C)O4)ccc1O	1.75	44
	4.09		Active						CC1(C)C=Cc2c(ccc3cc(C(=O)N/N=C/c4c(O)cc(O)cc4O)oc23)O1	1.36	56
Active	< 4.00	Active							COc1cc(/C=N/NC(=O)c2cc3ccc4c(c3o2)C=CC(C)(C)O4)cc(I)c1O	0.99	59
	4.56		Active						CC1(C)C=Cc2c(ccc3cc(C(=O)N/N=C/c4cc(O)c(O)c(O)c4)oc23)O1	2.59	56
	4.61			Active					CC1(C)C=Cc2c(ccc3cc(C(=O)N/N=C/c4cc(O)c(O)cc4O)oc23)O1	2.43	56
	5.00				Active	Active			CC1(C)C=Cc2c(ccc3cc(C(=O)N/N=C/c4ccc(O)c(O)c4O)oc23)O1	2.89	70
Active	4.21	Active							Cc1cc(/C=N/NC(=O)c2cc3ccc4c(c3o2)C=CC(C)(C)O4)cc(C)c1O	1.11	50
	4.15								CC1(C)C=Cc2c(ccc3cc(C(=O)N/N=C/c4ccc(O)cc4O)oc23)O1	1.42	
Active	4.17								COc1ccc(/C=N/NC(=O)c2cc3ccc4c(c3o2)C=CC(C)(C)O4)c(O)c1	1.01	> 50
	5.22		Active						CC1(C)C=Cc2c(ccc3cc(C(=O)N/N=C/c4cccc(O)c4O)oc23)O1	1.75	
	5.04				Active				CC1(C)C=Cc2c(ccc3cc(C(=O)N/N=C/c4cc(O)ccc4O)oc23)O1	1.8	69
	4.29								O=C1O[C@H]([C@@H](O)CO)C(O)=C1O [ASCORBIC ACID]	0.72	
	5.23			Active		Active		Dde	CC1(C)C=Cc2c(ccc3cc(C(=O)N/N=C/c4ccc(O)c(O)c4)oc23)O1	3.97	60
